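Test compounds were applied to cells in 96-well plates for 48 hours at 5 doses. GI50 = concentration required for 50% inhibition of growth.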 Calls of active or inactive are those of the source. No stated cut-off is given here; in the data, active = GI50 up to about 1.1 µM and inactive = higher.
Experiments:
Assay in all cases: inhibition of tumour cell growth, NCI panel, 48 h
[1] = system: MOLT-4
[2] = system: T47D
[3] = system: CAKI-1
[4] = system: A498
[5] = system: K562
[6] = system: RXF 393
[7] = system: SK-OV-3
[8] = system: UO-31
[9] = system: SK-MEL-28
[10] = system: HT-29
[11] = system: NCI-H522
[12] = system: TK-10
[13] = system: SF-268
[14] = system: HOP-92
[15] = system: NCI/ADR-RES
[16] = system: SN12C
[17] = system: CCRF-CEM
[18] = system: PC-3
[19] = system: RPMI-8226
[20] = system: SF-539

For `C=CC1(CC/C(=C\[N+](=O)[O-])c2ccc(OC)c(OC)c2)OCC(C)(C)CO1`, the GI50 [1] was 1.46 µM (inactive), the GI50 [2] was 14.5 µM (inactive) and the GI50 [3] was 23.2 µM (inactive). The GI50 [4] was > 10 µM (inactive), the GI50 [5] was 6.61 µM (inactive) and the GI50 [6] was 12.9 µM (inactive). The GI50 [7] was 22.4 µM (inactive), the GI50 [8] was 15.1 µM (inactive) and the GI50 [9] was 19.8 µM (inactive). For the same compound, the GI50 [10] was 19.9 µM (inactive), the GI50 [11] was 13.8 µM (inactive) and the GI50 [12] was 17.5 µM (inactive). For the same compound, the GI50 [13] was 16 µM (inactive), the GI50 [14] was 18.2 µM (inactive) and the GI50 [15] was 13.9 µM (inactive). For the same compound, the GI50 [16] was 21 µM (inactive), the GI50 [17] was 7.57 µM (inactive) and the GI50 [18] was 25.6 µM (inactive).

For `O=C(CNc1ccccc1[N+](=O)[O-])Nn1c(-c2ccccc2)nc2ccccc2c1=O`, the GI50 [1] was 16.1 µM (inactive), the GI50 [2] was 17.3 µM (inactive) and the GI50 [4] was 26.2 µM (inactive). The GI50 [5] was 16.3 µM (inactive), the GI50 [6] was 20.1 µM (inactive) and the GI50 [7] was 30.7 µM (inactive). The GI50 [8] was 18.7 µM (inactive), the GI50 [9] was 23.5 µM (inactive) and the GI50 [10] was 17.5 µM (inactive). For the same compound, the GI50 [11] was > 10 µM (inactive), the GI50 [12] was > 10 µM (inactive) and the GI50 [13] was 32.4 µM (inactive). The GI50 [14] was 12.4 µM (inactive), the GI50 [19] was 20.9 µM (inactive) and the GI50 [20] was 19.7 µM (inactive). The GI50 [15] was 25.7 µM (inactive), the GI50 [16] was 25.8 µM (inactive) and the GI50 [17] was 15.8 µM (inactive). For the same compound, the GI50 [18] was 22.2 µM (inactive).

`C=CC(Br)(CBr)CCC(Br)C(C)(C)Cl` (stereo unspecified) was tested, and the GI50 [1] was 0.555 µM (active), the GI50 [2] was 1.67 µM (inactive) and the GI50 [4] was 5.16 µM (inactive). For the same compound, the GI50 [5] was 1.75 µM (inactive), the GI50 [6] was 2.99 µM (inactive) and the GI50 [7] was 16.3 µM (inactive). For the same compound, the GI50 [8] was 1.65 µM (inactive), the GI50 [9] was 2.36 µM (inactive) and the GI50 [10] was 1.53 µM (inactive). The GI50 [11] was 1.38 µM (inactive), the GI50 [12] was 2.72 µM (inactive) and the GI50 [13] was 2.02 µM (inactive). For the same compound, the GI50 [14] was 2.04 µM (inactive), the GI50 [19] was 0.579 µM (active) and the GI50 [20] was 1.99 µM (inactive). The GI50 [15] was 3.92 µM (inactive), the GI50 [16] was 5.48 µM (inactive) and the GI50 [17] was 2.22 µM (inactive). For the same compound, the GI50 [18] was 3.27 µM (inactive).

With `CC(=O)/C=C1\Nc2sc(C)c(C)c2C(=O)S1` the GI50 [1] was 10 µM (inactive), the GI50 [2] was 47.2 µM (inactive) and the GI50 [3] was 65.3 µM (inactive). The GI50 [4] was > 100 µM (inactive), the GI50 [5] was 60.4 µM (inactive) and the GI50 [6] was > 100 µM (inactive). For the same compound, the GI50 [7] was > 100 µM (inactive), the GI50 [8] was 54 µM (inactive) and the GI50 [9] was > 100 µM (inactive). For the same compound, the GI50 [10] was 34.1 µM (inactive), the GI50 [12] was 80.4 µM (inactive) and the GI50 [13] was 28.8 µM (inactive). For the same compound, the GI50 [14] was > 100 µM (inactive), the GI50 [19] was 38.6 µM (inactive) and the GI50 [20] was 24.5 µM (inactive). For the same compound, the GI50 [15] was 37.1 µM (inactive), the GI50 [16] was 84.3 µM (inactive) and the GI50 [17] was 21.7 µM (inactive). For the same compound, the GI50 [18] was 25.4 µM (inactive).

For `CN1CC(S(=O)(=O)c2ccccc2)CC(S(=O)(=O)c2ccccc2)C1c1ccccc1` (stereo unspecified), the GI50 [1] was 16.8 µM (inactive), the GI50 [2] was 18.2 µM (inactive) and the GI50 [3] was 10.8 µM (inactive). The GI50 [4] was 16.2 µM (inactive), the GI50 [5] was 15 µM (inactive) and the GI50 [6] was 14.9 µM (inactive). The GI50 [7] was 39.1 µM (inactive), the GI50 [8] was 15.3 µM (inactive) and the GI50 [9] was 15.9 µM (inactive). The GI50 [10] was 14.8 µM (inactive), the GI50 [11] was 2.9 µM (inactive) and the GI50 [12] was 14.2 µM (inactive). The GI50 [13] was 16.2 µM (inactive), the GI50 [14] was 18.2 µM (inactive) and the GI50 [20] was 4.86 µM (inactive). For the same compound, the GI50 [15] was 23.3 µM (inactive), the GI50 [16] was 10.4 µM (inactive) and the GI50 [18] was 12.1 µM (inactive).

For `O=C(O)c1ccccc1/C=N/N=C1NCCCCN1`, the GI50 [1] was > 100 µM (inactive), the GI50 [2] was > 100 µM (inactive) and the GI50 [4] was > 100 µM (inactive). The GI50 [5] was > 100 µM (inactive), the GI50 [6] was > 100 µM (inactive) and the GI50 [7] was > 100 µM (inactive). For the same compound, the GI50 [8] was > 100 µM (inactive), the GI50 [9] was > 100 µM (inactive) and the GI50 [10] was > 100 µM (inactive). For the same compound, the GI50 [11] was 90.8 µM (inactive), the GI50 [12] was > 100 µM (inactive) and the GI50 [13] was > 100 µM (inactive). The GI50 [14] was > 100 µM (inactive), the GI50 [19] was > 100 µM (inactive) and the GI50 [20] was > 100 µM (inactive). For the same compound, the GI50 [15] was > 100 µM (inactive), the GI50 [17] was > 100 µM (inactive) and the GI50 [18] was > 100 µM (inactive).

— ChEMBL document CHEMBL1201862, “PubChem BioAssay data set” (2004)
